Usually IC50 stands for the concentration that gives 50% inhibition. What is called IC90 is the concentration at which the effect reaches the 90% level. Read a low IC90 as greater potency. What is called CC50 is the concentration at which the toxic effect on the cells reaches its halfway point. Read a high CC50 as better tolerance by the cells.

The test relates to M. tuberculosis H37Rv growth inhibition. Briefly: M. tuberculosis H37Rv growth inhibitors, H37Rv strain (AID 1626). The following applies: for IC90: measured here: IC90 against H37Rv; for CC50: measured here: Vero cell cytotoxicity.

`Oc1ccc2ccccc2c1CNc1cnc2ccccc2c1`: the IC50 is 1.42 µM and the IC90 is greater than 100 µM.
Regarding `Cn1c(O)c(C=Nc2ccc3c(c2)CCC3)c(=O)n(C)c1=O`, the 90% effect concentration (IC90) was greater than 100 µM.
Consider `Cc1cccc(CSc2nnc(CCCCCNC(=O)OC(C)(C)C)o2)c1`, for which the concentration for half-maximal inhibition (IC50) is 15.3 µM, the 90% effect concentration (IC90) turned out to be 21.3 µM and the CC50 was greater than 40 µM.
The like results for `CCN(Cc1ccccc1)c1ccc(/C=N/N=C(N)N)cc1` were, in that order, 5.5 µM, 6.21 µM and 8.71 µM.
With `COc1cc(NC(=O)c2ccc(Cl)cc2)c(OC)cc1NC(=O)CN1CCCCC1`, the IC50 is 8.74 µM and the concentration for an effect of 90% (IC90) came to 16.9 µM.
With `CCOc1ccc(OCC)c(NC(=O)CN2CCN(c3cc(C)ccc3C)CC2)c1`, the IC90 was greater than 100 µM and the CC50 is greater than 40 µM.
Take `Cc1cc(-c2ccc(/C=N/n3cnnc3)o2)ccc1Cl`: the 90% effect concentration (IC90) was greater than 100 µM.
`Nc1c2c(nc3ccn(Cc4ccccc4)c(=O)c13)CCC2`: the IC50 is 7.11 µM, the IC90 was found to be 15.3 µM and the CC50 was greater than 40 µM.
The matching figures for `Cc1cc(NC(=O)CSc2nnc(-c3ccc4c(c3)OCCO4)o2)no1`: 1.49 µM, 2.53 µM and greater than 40 µM.
Regarding `FC(F)(F)c1nnc(-c2ccccc2)nc1Sc1ccccc1`, the half-maximal inhibitory concentration (IC50) is 21.9 µM, the IC90 is 25.3 µM and the CC50 is greater than 40 µM.
The matching figures for `COc1ccc(N=c2cc(-c3ccc(O)cc3)oc3ccccc23)cc1`: 5.8 µM, 9.5 µM and 34.3 µM.
The like results for `Cc1cccc(NC(=O)c2nc[nH]c2C(=O)N[C@@H](CC(C)C)C(=O)OCc2ccccc2)c1` were, in that order, 23 µM, greater than 100 µM and 39.1 µM.
In the case of `CN(CC(=O)Nc1ccc(Cl)c(Cl)c1)Cc1nnc(-c2ccc(F)cc2)o1`, the IC50 is 15.9 µM and the IC90 turned out to be 24.1 µM.
For `c1coc(CNc2nc(N3CCCCC3)nc3ccccc23)c1`, the IC50 is 1.49 µM, the concentration for an effect of 90% (IC90) was found to be 1.69 µM and the cytotoxic concentration (CC50) is greater than 40 µM.
The matching figures for `CN(CCCC[C@H](CNCc1ccc(-c2ccccc2)cc1)N1C[C@H](c2ccccc2)N(CCc2ccc(Cl)c(Cl)c2)C(=O)C1=O)Cc1ccc(-c2ccccc2)cc1`: 5.07 µM, 5.61 µM and 6.12 µM.
For the compound `CC1CCN(c2ccc(C=O)o2)CC1`, the IC50 is 55.9 µM and the IC90 is greater than 100 µM.
The matching figures for `CCOC(=O)N1CCN(CCC(=O)Nc2ccc(C)c(Br)c2)CC1`: 6.69 µM and 26.2 µM.
Consider `CNC(=O)c1c(NC(=O)c2nc3ccccc3s2)sc2c1CCC2`, for which the CC50 was greater than 40 µM.
`COc1cccc(NC(=O)c2cc(-c3ccncc3)nc3c(C)cc(C)cc23)c1`: the IC50 was 10.9 µM, the IC90 came out at 18.5 µM and the cytotoxic concentration (CC50) was greater than 40 µM.
On to `O=C(CSc1nnc(-c2cccs2)o1)OC1CCCCC1`, for which the half-maximal inhibitory concentration (IC50) was 2.23 µM and the 90% effect concentration (IC90) is 7.65 µM.
In turn, `CCOc1ccc(N2C(=O)c3ccccc3C2=O)cc1` had a 90% effect concentration (IC90) greater than 100 µM.
Take `Nc1scc(-c2ccncc2)c1Cl`: the IC50 is 5.32 µM, the IC90 is greater than 100 µM and the half-maximal cytotoxic concentration (CC50) is greater than 40 µM.
Take `Cc1cc(C)nc(/N=C(\N)Nc2ccc(-c3ccccc3)cc2)n1`: the concentration for half-maximal inhibition (IC50) is 2.74 µM, the IC90 amounted to 11 µM and the cytotoxic concentration (CC50) is greater than 40 µM.
The like results for `CCCCOc1ccc(C(=O)N/C(=C/C=C/c2ccccc2)C(=O)N2CCOCC2)cc1` were, in that order, 13.9 µM, greater than 100 µM and greater than 40 µM.
Regarding `Cn1c(C(C#N)C(=O)c2ccco2)nc2ccccc21` (stereo not given), the 50% inhibitory concentration (IC50) was 6.99 µM and the IC90 is greater than 100 µM.
For `Cn1c(N=Nc2ccccc2)nc2ccccc21`, the IC50 was 1.04 µM, the 90% effect concentration (IC90) stood at 1.89 µM and the CC50 is 16.1 µM.
`Cc1cc(NC(=O)CSc2nnc(-c3ccccc3)o2)no1`: the 50% inhibitory concentration (IC50) was 5.7 µM, the IC90 was 10.1 µM and the cytotoxic concentration (CC50) is greater than 40 µM.
The matching figures for `O=[N+]([O-])c1ccc(/C=N/n2c(CO)nc3ccccc32)s1`: 0.523 µM, 1.1 µM and greater than 40 µM.
On to `Nc1cc2nc3ccccc3oc-2cc1=O`, for which the half-maximal inhibitory concentration (IC50) was 0.368 µM, the IC90 turned out to be 0.916 µM and the half-maximal cytotoxic concentration (CC50) was greater than 40 µM.
On to `COc1ccc(-c2csc(-c3cccs3)n2)cc1OC`, for which the IC50 was 11.3 µM and the IC90 is greater than 100 µM.
The like results for `O=c1c2cc(Cl)ccc2oc2nc3n(c(=O)c12)CCCS3` were, in that order, 0.803 µM and 8.71 µM.
The like results for `CCc1ccc(CCC(=O)Nc2ccc(OC)cc2)o1` were, in that order, 35.9 µM and greater than 100 µM.
Turning to `Cc1cc(/C=N/n2cnnc2)c(C)n1-c1ccc(OCc2ccc(Cl)cc2Cl)cc1`, the IC50 is 8.02 µM, the IC90 came out at 15 µM and the CC50 was 21.6 µM.
The like results for `COC(=O)/C(=C1/Oc2cc(C)oc(=O)c2S1)C(F)(F)F` were, in that order, 0.698 µM, 23.8 µM and 6.33 µM.
With `N#Cc1c(N2CCN(C(=O)c3ccco3)CC2)nc(-c2ccccc2)c2c1CCCC2`, the IC50 was 9.52 µM, the IC90 was found to be 12.2 µM and the 50% cytotoxic concentration (CC50) was determined as 24.1 µM.
Regarding `Clc1ccc(-c2ccc(C=Nc3ccc(N4CCOCC4)cc3)o2)cc1`, the half-maximal inhibitory concentration (IC50) is 7.5 µM and the IC90 is greater than 100 µM.
The like results for `CCOC(=O)C1CCCN(c2ccc([N+](=O)[O-])c3nonc23)C1` (stereo not given) were, in that order, 1.46 µM and 1.6 µM.
`CCOC(=O)c1sc(NC(=O)CSc2ncn[nH]2)c(C#N)c1C` returned a 50% cytotoxic concentration (CC50) greater than 40 µM.
As to `FC(F)(F)c1ccc(N2CCOCC2)c(Nc2nc3ccccc3n3cnnc23)c1`, the IC50 is 8.57 µM, the concentration for an effect of 90% (IC90) was 18.3 µM and the CC50 was 24.5 µM.
The like results for `COc1c(Cl)cc(Cl)cc1/C=C/C(=O)c1ccc(NC(=O)c2cccs2)cc1` were, in that order, 7.91 µM, 16.4 µM and 6.47 µM.
Take `CN(C)CCNC(=O)/C(=C/c1ccc(-c2ccc(Cl)cc2Cl)o1)NC(=O)c1ccccc1`: the concentration for half-maximal inhibition (IC50) is 10.5 µM, the concentration for an effect of 90% (IC90) stood at 11.6 µM and the CC50 turned out to be 10.2 µM.
The like results for `N#Cc1ccc(/C=C/C(=O)c2ccccc2)cc1` were, in that order, 5.89 µM, 7.86 µM and greater than 40 µM.
The matching figures for `O=C(NC12CC3CC(CC(C3)C1)C2)c1ccc(-c2ccc(Br)cc2)o1`: 6.56 µM, 12.7 µM and 35.3 µM.
Consider `Cc1nc2ccc(NC(=O)N(C(C)C)C(C)C)cc2s1`, for which the half-inhibitory concentration (IC50) was 20.2 µM and the 90% effect concentration (IC90) was greater than 100 µM.
`O=C(CCl)Nc1ccccc1C(=O)NCc1ccccc1`: the IC50 was 8.16 µM, the 90% effect concentration (IC90) was found to be 21.2 µM and the CC50 was determined as 24.4 µM.
For `COCCn1nnnc1C(c1cc2cc(OC)ccc2[nH]c1=O)N1CCC(Cc2ccccc2)CC1` (stereo not given), the IC50 was 7.52 µM and the IC90 was determined as 15.8 µM.
The matching figures for `CC(=O)c1ccc(NC(=O)CSCC(=O)Nc2ccc3ccccc3c2)cc1`: 51 µM and greater than 100 µM.

These data come from PubChem BioAssay AID1626 (SRMLSC, 2009).
